System: GammaD12
Conditions: IC50 concentration, 24 h, vs vehicle
Protocol: According to instructions, Caspase-Glo® 3/7 assay (Promega GmbH, Mannheim, Germany) was used for monitoring caspase activity. Briefly, the same volume Caspase-Glo reagent as culture medium was added and incubated 1 h at room temperature. Luminescence was read with a Victor3 Wallac 1420 Multilabel counter (PerkinElmer, Rodgau, Germany). Background absorbance (medium only) was subtracted and the data given as percent of vehicle controls.

SMILES: Fc1ccccc1CNc1ncnc2c1cnn2CC(Cl)c1ccc(Br)cc1 (stereo not shown) [Si162]
- Increase in caspase-3/7 activity: up to 3 fold

Source: publication PMC2994747, “Molecular Characterization of c-Abl/c-Src Kinase Inhibitors Targeted against Murine Tumour Progenitor Cells that Express Stem Cell Markers” (PLoS ONE, 2010)
